Data as given in patent US20240000806A1, “METHODS AND MATERIALS FOR INHIBITING CB1 ACTIVITY” (University of Pittsburgh - Of the Commonwealth System of …, priority 2020, published 2024).

Target: CB1 (CNR1) (Homo sapiens, UniProt P21554)
Assay: cAMP CNR1 Hunter cell line antagonist assay (CB1 assay)
Format: cell-based
Conditions: antagonist mode, cAMP CNR1 Hunter cells, EC80 agonist; read-out: CB1 assay, Efficacy (IC50)
Method: cAMP CNR1 Hunter cell line (Eurofins DiscoveryX) were expanded from freezer stocks and seeded in a total volume of 20 μL into white walled, 384-well microplates and incubated at 37° C. for the appropriate time prior to testing. For antagonist determination, cell media was aspirated from cells and replaced with 10 μL 1:1 HBSS/Hepes:cAMP XS+Ab reagent. 5 μL of 4× compound was added to the cells and incubated at 37° C. for 30 minutes. 5 μL of 4× EC80 agonist was added to cells and incubated at 37° C. for 30 minutes. After appropriate compound incubation, assay signal was generated through incubation with 20 μL cAMP XS+ED/CL lysis cocktail for one hour followed by incubation with 20 μL cAMP XS+EA reagent for three hours at room temperature. Microplates were read following signal generation with a PerkinElmer Envision™ instrument for chemiluminescent signal detection. Compound activity (IC50) was analyzed using CBIS data analysis suite (ChemInnovation, CA).

Chain of CB1 (CNR1) (P21554 whole entry): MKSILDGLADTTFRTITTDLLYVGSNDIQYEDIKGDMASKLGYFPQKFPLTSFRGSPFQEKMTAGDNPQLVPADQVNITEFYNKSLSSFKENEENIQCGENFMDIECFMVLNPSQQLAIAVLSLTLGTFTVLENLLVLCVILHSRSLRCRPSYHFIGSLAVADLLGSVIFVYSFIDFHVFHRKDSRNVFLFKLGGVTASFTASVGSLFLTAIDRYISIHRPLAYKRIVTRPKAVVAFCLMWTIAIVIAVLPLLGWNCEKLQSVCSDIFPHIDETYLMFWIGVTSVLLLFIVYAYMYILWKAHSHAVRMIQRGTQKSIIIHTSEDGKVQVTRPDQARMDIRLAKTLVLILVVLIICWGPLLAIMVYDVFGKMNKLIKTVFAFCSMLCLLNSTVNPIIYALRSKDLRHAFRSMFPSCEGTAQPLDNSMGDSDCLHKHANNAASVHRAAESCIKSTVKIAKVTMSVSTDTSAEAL

Row | IC50 | Structure (SMILES)
1 | 1000 to 25000 nM | O=C1COc2c(cc(Br)cc2S(=O)(=O)Nc2ccc(F)c(F)c2)N1 [BC19177]
2 | < 1000 nM | O=C1COc2c(cc(Br)cc2S(=O)(=O)Nc2ccc(F)cc2F)N1 [BC19178]
3 | 1000 to 25000 nM | CCc1ccc(NS(=O)(=O)c2cc(Br)cc3c2OCC(=O)N3)cc1 [BC19179]
4 | ≥ 25000 nM | CCc1cccc(NS(=O)(=O)c2cc(Br)cc3c2OCC(=O)N3)c1 [BC19180]
5 | ≥ 25000 nM | CN1CC(=O)Nc2ccc(S(=O)(=O)N3CCCC3)cc21 [BC19181]
6 | < 1000 nM | CC(=O)N1c2cc(S(=O)(=O)N3CCCC3)ccc2NC(=O)C1C (centres unmarked) [BC19182]
7 | 1000 to 25000 nM | CNC(=O)N1CC(=O)Nc2ccc(S(=O)(=O)N3CCCC3)cc21 [BC19183]
8 | 1000 to 25000 nM | CC(C)CC(=O)N1c2cc(S(=O)(=O)N3CCCC3)ccc2NC(=O)C1C (centres unmarked) [BC19184]
9 | ≥ 25000 nM | CC1Oc2cc(S(=O)(=O)Nc3ccccc3)c(Cl)cc2NC1=O (centres unmarked) [BC19206]
10 | ≥ 25000 nM | CC(C)NS(=O)(=O)c1cc2c(cc1Cl)NC(=O)C(C)O2 (centres unmarked) [BC19207]
11 | ≥ 25000 nM | CC1Oc2cc(S(=O)(=O)N3CCCC3)c(Cl)cc2NC1=O (centres unmarked) [BC19208]
12 | ≥ 25000 nM | CCNS(=O)(=O)c1cc2c(cc1Cl)NC(=O)C(C)O2 (centres unmarked) [BC19209]
13 | < 1000 nM | CCC1Oc2cc(S(=O)(=O)Nc3ccc(C(C)C)cc3)c(Cl)cc2NC1=O (centres unmarked) [BC19210]
14 | 1000 to 25000 nM | CCC1Oc2cc(S(=O)(=O)Nc3ccc(OC)cc3)c(Cl)cc2NC1=O (centres unmarked) [BC19211]

More lines, now with the values behind:

Row | Structure (SMILES) | IC50
15 | Cc1cc2c(cc1S(=O)(=O)Nc1ccc(Cl)cc1)OCC(=O)N2 [BC19131] | < 1000 nM
16 | CC(=O)c1cccc(NS(=O)(=O)c2cc3c(cc2C)NC(=O)CO3)c1 [BC19132] | ≥ 25000 nM
17 | O=C1COc2cc(S(=O)(=O)Nc3ccc(Cl)cc3)c(Cl)cc2N1 [BC19133] | < 1000 nM
18 | Cc1ccc(NS(=O)(=O)c2cc3c(cc2C)NC(=O)CO3)cc1 [BC19134] | < 1000 nM
19 | CCOc1ccc(NS(=O)(=O)c2cc3c(cc2Br)NC(=O)CO3)cc1 [BC19135] | 1000 to 25000 nM
20 | CC(C)c1ccc(NS(=O)(=O)c2cc3c(cc2Cl)NC(=O)CO3)cc1 [BC19136] | < 1000 nM
21 | COc1ccc(NS(=O)(=O)c2cc3c(cc2Br)NC(=O)CO3)cc1 [BC19137] | < 1000 nM
22 | CCc1ccc(NS(=O)(=O)c2cc3c(cc2Br)NC(=O)CO3)cc1 [BC19138] | < 1000 nM
23 | O=C1COc2cc(S(=O)(=O)Nc3ccccc3)c(Cl)cc2N1 [BC19161] | < 1000 nM
24 | Cc1ccc(Cl)cc1NS(=O)(=O)c1cc2c(cc1Cl)NC(=O)CO2 [BC19162] | < 1000 nM
25 | COc1ccc(NS(=O)(=O)c2cc3c(cc2Br)NC(=O)CO3)cc1Cl [BC19163] | < 1000 nM
26 | O=C1COc2cc(S(=O)(=O)Nc3ccc(OC(F)(F)F)cc3)c(Cl)cc2N1 [BC19164] | < 1000 nM
27 | Cc1ccc(NS(=O)(=O)c2cc3c(cc2Cl)NC(=O)CO3)cc1Cl [BC19165] | 1000 to 25000 nM
28 | O=C1COc2cc(S(=O)(=O)Nc3ccc(F)cc3F)c(Br)cc2N1 [BC19166] | < 1000 nM
29 | CCc1cccc(NS(=O)(=O)c2cc3c(cc2Br)NC(=O)CO3)c1 [BC19167] | < 1000 nM
30 | O=C1COc2c(cc(Cl)cc2S(=O)(=O)Nc2ccccc2)N1 [BC19168] | 1000 to 25000 nM
31 | O=C1COc2c(cc(Cl)cc2S(=O)(=O)Nc2ccc(Cl)cc2)N1 [BC19169] | < 1000 nM
32 | Cc1ccc(Cl)cc1NS(=O)(=O)c1cc(Cl)cc2c1OCC(=O)N2 [BC19170] | 1000 to 25000 nM
33 | COc1ccc(NS(=O)(=O)c2cc(Br)cc3c2OCC(=O)N3)cc1Cl [BC19171] | 1000 to 25000 nM
34 | O=C1COc2c(cc(Cl)cc2S(=O)(=O)Nc2ccc(OC(F)(F)F)cc2)N1 [BC19172] | ≥ 25000 nM
35 | CCOc1ccc(NS(=O)(=O)c2cc(Br)cc3c2OCC(=O)N3)cc1 [BC19173] | ≥ 25000 nM
36 | CC(C)c1ccc(NS(=O)(=O)c2cc(Cl)cc3c2OCC(=O)N3)cc1 [BC19174] | ≥ 25000 nM
37 | COc1ccc(NS(=O)(=O)c2cc(Br)cc3c2OCC(=O)N3)cc1 [BC19175] | ≥ 25000 nM
38 | Cc1ccc(NS(=O)(=O)c2cc(Cl)cc3c2OCC(=O)N3)cc1Cl [BC19176] | < 1000 nM
